Data taken from ChEMBL document CHEMBL1146299, “Molecular modeling of binding between amidinobenzisothiazoles, with antidegenerative activity on cartilage, and matrix metalloproteinase-3” (Bioorg Med Chem, 2007).

test: Dissociation constant, pKa of the compound; format: physicochemical

pKa	Structure (SMILES)
4.84	N=C(Nc1nsc2ccccc12)c1ccc(Cl)cc1
5.4	N=C(Nc1nsc2ccccc12)c1ccccc1
6.99	CC(=N)Nc1nsc2ccccc12
